Experimental findings from PubChem BioAssay (NCI) are described below.

Among the test systems are CCRF-CEM leukemia; EKVX NSCLC; LOX IMVI melanoma; NCI-H522 lung; OVCAR-8 ovarian; RPMI-8226 leukemia; SF-539 CNS; SK-MEL-2 melanoma; SK-MEL-28 melanoma; UACC-62 melanoma.
Holding throughout (assay): NCI-60 cell line screen, 48 h

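Each compound was tested at five concentrations against cells in 96-well plates for 48 hours. GI50 marks 50% less growth. TGI: concentration producing complete growth inhibition.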

For the compound `CC(=O)OC[C@]1(C)C=C2C(=O)[C@](C)(O)C3(CC3)C(C)=C2[C@H]1O`, the GI50 in the assay with CCRF-CEM leukemia is 206 nM; in the assay on EKVX NSCLC, 0.252 µM; in the assay on LOX IMVI melanoma, 87.5 nM; with NCI-H522 lung, 79.8 nM; with OVCAR-8 ovarian it was 177 nM; with RPMI-8226 leukemia, 13900 nM. The GI50 with SF-539 CNS is 166 nM; with SK-MEL-2 melanoma, 0.127 µM; in the assay with SK-MEL-28 melanoma, 0.215 µM; in the assay with UACC-62 melanoma, 89.4 nM. Also, the TGI in the assay on CCRF-CEM leukemia was > 100 µM; with EKVX NSCLC, 1.2 µM; in the assay on LOX IMVI melanoma, 0.65 µM; in the assay on NCI-H522 lung it was 390 nM; with OVCAR-8 ovarian, 4.51 µM; with RPMI-8226 leukemia it was > 81.5 µM. The TGI was determined as 0.388 µM in the assay with SF-539 CNS, 0.345 µM in the assay with SK-MEL-2 melanoma, 0.575 µM with SK-MEL-28 melanoma and 0.302 µM with UACC-62 melanoma.

Consider `Oc1ccc2ccccc2c1N=Nc1nccs1`, for which the GI50 with CCRF-CEM leukemia is 93.2 nM; in the assay with EKVX NSCLC, 0.807 µM; in the assay on LOX IMVI melanoma, 328 nM; in the assay on NCI-H522 lung, 2220 nM; in the assay on OVCAR-8 ovarian, 494 nM; in the assay on RPMI-8226 leukemia, 187 nM. For the same compound, the GI50 in the assay on SF-539 CNS is 2330 nM; in the assay on SK-MEL-2 melanoma, 3.09 µM; with SK-MEL-28 melanoma it was 2.55 µM; in the assay on UACC-62 melanoma, 2300 nM. The TGI with EKVX NSCLC was > 54.3 µM; in the assay on LOX IMVI melanoma it was 17.5 µM; in the assay on NCI-H522 lung, 12400 nM; with OVCAR-8 ovarian, 42 µM; in the assay on SF-539 CNS, 13.2 µM; with SK-MEL-2 melanoma, 34.5 µM. The TGI in the assay on SK-MEL-28 melanoma turned out to be 18.6 µM; in the assay with UACC-62 melanoma, 24.3 µM.

As for `CCC[CH2][Sn]1([CH2]CCC)[O]Cc2nc(C)ccc2[O]1`, the GI50 in the assay on CCRF-CEM leukemia is 1870 nM; with EKVX NSCLC, 4.36 µM; with LOX IMVI melanoma, 1950 nM; with NCI-H522 lung, 1190 nM; with OVCAR-8 ovarian, 9100 nM; with RPMI-8226 leukemia it was 1990 nM. The GI50 with SF-539 CNS was 12100 nM; with SK-MEL-2 melanoma it was 3.32 µM; in the assay on SK-MEL-28 melanoma, 10.6 µM; with UACC-62 melanoma, 2060 nM. In addition, the TGI with CCRF-CEM leukemia came out at 5.01 µM; in the assay with EKVX NSCLC, 18.2 µM; in the assay on LOX IMVI melanoma it was 3.97 µM; in the assay with NCI-H522 lung, 2500 nM; in the assay with OVCAR-8 ovarian, 21.7 µM; in the assay on RPMI-8226 leukemia it was 6.87 µM. Further, the TGI in the assay on SF-539 CNS is 24.5 µM; in the assay with SK-MEL-2 melanoma it was 8.8 µM; in the assay on SK-MEL-28 melanoma, 22.4 µM; in the assay with UACC-62 melanoma, 4.57 µM.

With `O=C(/C(Br)=C/c1ccccc1)c1ccccc1`, the GI50 in the assay on CCRF-CEM leukemia is 390 nM; with EKVX NSCLC, 10.6 µM; in the assay on LOX IMVI melanoma, 433 nM; with NCI-H522 lung, 396 nM; in the assay with OVCAR-8 ovarian, 2750 nM; with RPMI-8226 leukemia it was 2410 nM. The GI50 in the assay with SF-539 CNS was 2120 nM; with SK-MEL-2 melanoma, 3.17 µM; in the assay with SK-MEL-28 melanoma, 5.31 µM; in the assay with UACC-62 melanoma, 1940 nM. In addition, the TGI was found to be 2.01 µM with CCRF-CEM leukemia; 23.3 µM in the assay with EKVX NSCLC; 1.59 µM in the assay with LOX IMVI melanoma; 2230 nM in the assay with NCI-H522 lung; 10.2 µM in the assay on OVCAR-8 ovarian; 7.07 µM in the assay on RPMI-8226 leukemia. Besides, the TGI stood at 4.72 µM in the assay with SF-539 CNS, 7.38 µM in the assay with SK-MEL-2 melanoma, 23.1 µM with SK-MEL-28 melanoma and 3.81 µM in the assay with UACC-62 melanoma.

Regarding `CC(C)c1nc(CN(C)C(=O)N[C@H](C(=O)N[C@@H](Cc2ccccc2)C[C@H](O)[C@H](Cc2ccccc2)NC(=O)OCc2cncs2)C(C)C)cs1`, the GI50 in the assay with CCRF-CEM leukemia was 19800 nM; in the assay with EKVX NSCLC, 4.11 µM; with LOX IMVI melanoma, 18900 nM; with NCI-H522 lung, 28700 nM; in the assay on OVCAR-8 ovarian, 36300 nM; with RPMI-8226 leukemia it was 7900 nM. In addition, the GI50 in the assay with SF-539 CNS is 2330 nM; in the assay with SK-MEL-2 melanoma, 31.7 µM; in the assay on SK-MEL-28 melanoma it was 21.5 µM; in the assay with UACC-62 melanoma, 18500 nM. Besides, the TGI was 50.5 µM in the assay on CCRF-CEM leukemia; > 100 µM in the assay on EKVX NSCLC; 40.1 µM with LOX IMVI melanoma; > 81000 nM in the assay with NCI-H522 lung; > 100 µM in the assay with OVCAR-8 ovarian; 27.7 µM in the assay on RPMI-8226 leukemia. The TGI is 49.4 µM in the assay with SF-539 CNS, > 100 µM in the assay with SK-MEL-2 melanoma, 47.2 µM with SK-MEL-28 melanoma and 34.9 µM with UACC-62 melanoma.

Consider `C=C1C(=O)O[C@H]2[C@H]1CC/C(Cn1cc(-c3ccc(OC)cc3)nn1)=C\CC[C@@]1(C)O[C@@H]21`, for which the GI50 with CCRF-CEM leukemia was 290 nM; in the assay on EKVX NSCLC, 2.47 µM; with LOX IMVI melanoma, 1160 nM; in the assay with NCI-H522 lung, 387 nM; with OVCAR-8 ovarian, 2590 nM; with RPMI-8226 leukemia, 1870 nM. Besides, the GI50 was 346 nM in the assay on SF-539 CNS, 1.95 µM with SK-MEL-2 melanoma, 0.822 µM with SK-MEL-28 melanoma and 1350 nM with UACC-62 melanoma. Also, the TGI in the assay with CCRF-CEM leukemia was 0.823 µM; in the assay on EKVX NSCLC, 10.3 µM; in the assay on LOX IMVI melanoma, 2.51 µM; in the assay with NCI-H522 lung, 1730 nM; with OVCAR-8 ovarian, 7.67 µM; in the assay with RPMI-8226 leukemia it was 5.15 µM. Moreover, the TGI in the assay with SF-539 CNS worked out at 1.49 µM; in the assay with SK-MEL-2 melanoma it was 4.61 µM; in the assay with SK-MEL-28 melanoma it was 2.41 µM; with UACC-62 melanoma, 2.99 µM.

On to `Cc1ccc(NC(=O)c2cccc(N(C)C)c2)cc1NC(=O)c1ccc(O)cc1`, for which the GI50 in the assay with CCRF-CEM leukemia was 16600 nM; in the assay on EKVX NSCLC, > 79.7 µM; in the assay with LOX IMVI melanoma it was > 62000 nM; in the assay with NCI-H522 lung it was 37100 nM; in the assay on OVCAR-8 ovarian it was 53200 nM; with RPMI-8226 leukemia, > 63100 nM. Also, the GI50 in the assay on SF-539 CNS was 41000 nM; with SK-MEL-2 melanoma, 14.1 µM; in the assay with SK-MEL-28 melanoma, > 50.1 µM; in the assay with UACC-62 melanoma, 34000 nM. In addition, the TGI in the assay on CCRF-CEM leukemia is > 100 µM; with EKVX NSCLC, > 100 µM; in the assay on LOX IMVI melanoma, > 100 µM; with NCI-H522 lung, > 88200 nM; in the assay with OVCAR-8 ovarian, > 100 µM; in the assay on RPMI-8226 leukemia it was > 100 µM. Besides, the TGI is > 100 µM in the assay with SF-539 CNS, 39.2 µM in the assay with SK-MEL-2 melanoma, > 100 µM in the assay with SK-MEL-28 melanoma and 99.4 µM with UACC-62 melanoma.
